In article PMC5021374, “An Arginine Finger Regulates the Sequential Action of Asymmetrical Hexameric ATPase in the Double-Stranded DNA Translocation Motor” (Molecular and Cellular Biology, 2016):

Assays:
[1] = target: T1, gp16 ATPase (ϕ29 motor ATPase gp16) (Bacillus phage phi29, UniProt P11014); experiment: EMSA with 33-bp Cy5-dsDNA (nucleotide-dependent DNA binding; indirect); settings: nonhydrolysable ATP analog; 33-bp Cy5-dsDNA present; ambient temperature, 20 min
T1 construct: gene 16; full-length gp16 with tags: SUMO-gp16 (Trp fluorescence), His-gp16 (trypsin probing), eGFP-gp16 (EMSA; N-terminal eGFP); homohexamer, monomer/dimer mixture in solution
T1 sequence (P11014 1-332): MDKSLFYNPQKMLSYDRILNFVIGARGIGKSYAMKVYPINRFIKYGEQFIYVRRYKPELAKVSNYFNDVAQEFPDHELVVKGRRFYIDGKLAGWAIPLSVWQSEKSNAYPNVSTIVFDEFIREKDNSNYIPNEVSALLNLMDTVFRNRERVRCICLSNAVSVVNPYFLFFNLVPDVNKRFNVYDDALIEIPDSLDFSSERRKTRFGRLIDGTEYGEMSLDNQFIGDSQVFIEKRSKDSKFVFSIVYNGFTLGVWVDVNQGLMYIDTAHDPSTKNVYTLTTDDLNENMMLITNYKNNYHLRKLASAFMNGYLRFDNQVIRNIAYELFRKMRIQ

[2] = target: T1, gp16 ATPase (ϕ29 motor ATPase gp16); experiment: fluorescent phosphate binding protein assay of ATP hydrolysis; type: biochemical; settings: DNA-dependent ATPase; tag in this assay not stated
[3] = target: T1, gp16 ATPase (ϕ29 motor ATPase gp16); experiment: intrinsic tryptophan fluorescence (SUMO-gp16); also trypsin probing (His-gp16); type: binding; settings: 2 mM Tris pH 8.0, 0.005% Tween 20, 1.5% PEG 8000, 0.5% acetone; excitation 280 nm

Row | SMILES | EMSA with 33-bp Cy5-dsDNA (nucleotide-dependent DNA binding; indirect) [1] | fluorescent phosphate binding protein assay of ATP hydrolysis [2] | intrinsic tryptophan fluorescence (SUMO-gp16); also trypsin probing (His-gp16) [3]
1 | Nc1ncnc2c1ncn2[C@@H]1O[C@H](COP(=O)(O)OP(=O)(O)OP(O)(O)=S)[C@@H](O)[C@H]1O [γ-S-ATP] | Stronger binding of gp16 to dsDNA was observed when gp16 was incubated with γ-S-ATP | – | –
2 | Nc1ncnc2c1ncn2[C@@H]1O[C@H](COP(=O)(O)OP(=O)(O)OP(=O)(O)O)[C@@H](O)[C@H]1O [ATP] | – | a phosphate binding protein conjugated to a fluorescent probe ... was used to assay ATP hydrolysis | both assays indicated a conformational change in the gp16-ATP complex
